Source: publication PMC5423974 (European Journal of Clinical Pharmacology, 2017)

How the values were obtained:
[1] = test system: UDP glucuronosyltransferase family 1 member A1 (UGT1A1); parameters: method as in earlier work; settings: ref 1 Report nos. Be000021–21 and D6244 KMN036, data on file, AstraZeneca; cited from earlier work
UGT1A1 = experiment: Pharmacogenetic association of genetic variants with dose-normalized PK (linear regression, additive model; random effects meta-analysis); assay type: in vivo, human
Procedure: (§1) Five of the six genetic variants analyzed (CYP2C19*2, CYP2C19*3, CYP2C19*17, UGT1A1*6, ABCG2 421C > A) were single nucleotide polymorphisms while one genetic variant was a tandem repeat (UGT1A1*28.) Genotyping of the variants was performed using a Luminex CYP2C19 assay (for CYP2C19*2, CYP2C19*3 and CYP2C19*17), Taqman assays (for UGT1A1*6 and ABCG2 421C > A), and fragment analysis (for UGT1A1*28).
(§2) Each genetic variant was tested for any association with dose-normalized AUC, AUC0–12 or Cmax, using linear regression under an additive genetic model (i.e. phenotypic response per additional copy of the variant allele, where 0, 1 or 2 copies can be present at each locus). For each PK parameter Bonferroni’s correction was used to control for multiple testing when assessing statistical significance. A p value below 0.008 (p < 0.05 with Bonferoni correction for 6 tests) was considered statistically significant. Given the variation in frequency of the variant alleles, analyses were performed stratified by ethnic group (Asian, White, Black) across the studies. A combined estimate across populations was obtained using random effects meta-analysis to allow for between-population heterogeneity.
(§3) Genotype distributions were tested for deviation from Hardy-Weinberg equilibrium using Chi-squared tests. All pharmacogenetic analyses were performed using either StataSE version 14.1 or R statistical software version 3.2.2.

CYP2C19 = experiment: as above; assay type: in vivo, human
Procedure: as §1, §2, §3

ABCG2 = experiment: as above; assay type: in vivo, human
Procedure: as §1, §2, §3

[2] = test system: Breast Cancer Resistance Protein (BCRP); parameters: method as in earlier work; settings: ref 1 Report nos. Be000021–21 and D6244 KMN036, data on file, AstraZeneca; cited from earlier work
[3] = UGTA1*6, combined analysis, N 42
[4] = UGTA1*28/37, combined across ethnicities, random effects meta-analysis, N 87
[5] = CYP219C*2, combined across ethnicities, random effects meta-analysis, N 87
[6] = CYP219C*3, combined analysis, N 42
[7] = CYP219C*17, combined across ethnicities, random effects meta-analysis, N 87
[8] = combined across ethnicities, random effects meta-analysis, N 87

Beta, per-allele change in DN AUC (UGT1A1; UGTA1*6, East Asian, N 42): 0.061 log ng.h/mL/mg | Beta, per-allele change in DN Cmax (UGT1A1; UGTA1*6, East Asian, N 42): 0.073 log ng/mL/mg | Beta, per-allele effect on DN AUC (UGT1A1; [3]): 0.061 log ng.h/mL/mg | Beta, per-allele effect on DN Cmax (UGT1A1; [3]): 0.073 log ng/mL/mg | Beta, per-allele change in DN AUC (UGT1A1; UGTA1*28/37, Black, N 21): 0.052 log ng.h/mL/mg | Beta, per-allele change in DN Cmax (UGT1A1; UGTA1*28/37, Black, N 21): 0.048 log ng/mL/mg | Beta, per-allele change in DN AUC (UGT1A1; UGTA1*28/37, East Asian, N 42): -0.153 log ng.h/mL/mg | Beta, per-allele change in DN Cmax (UGT1A1; UGTA1*28/37, East Asian, N 42): -0.152 log ng/mL/mg | Beta, per-allele change in DN AUC (UGT1A1; UGTA1*28/37, White, N 24): -0.033 log ng.h/mL/mg | Beta, per-allele change in DN Cmax (UGT1A1; UGTA1*28/37, White, N 24): 0.190 log ng/mL/mg | Beta, per-allele effect on DN AUC (UGT1A1; [4]): -0.055 log ng.h/mL/mg | Beta, per-allele effect on DN Cmax (UGT1A1; [4]): 0.016 log ng/mL/mg | Beta, per-allele change in DN AUC (CYP2C19; CYP219C*2, Black, N 21): -0.043 log ng.h/mL/mg | Beta, per-allele change in DN AUC(0–12) (CYP2C19; CYP219C*2, Black, N 21): -0.010 log ng.h/mL/mg | Beta, per-allele change in DN Cmax (CYP2C19; CYP219C*2, Black, N 21): -0.110 log ng/mL/mg | Beta, per-allele change in DN AUC (CYP2C19; CYP219C*2, East Asian, N 42): 0.009 log ng.h/mL/mg | Beta, per-allele change in DN AUC(0–12) (CYP2C19; CYP219C*2, East Asian, N 42): 0.011 log ng.h/mL/mg | Beta, per-allele change in DN Cmax (CYP2C19; CYP219C*2, East Asian, N 42): -0.064 log ng/mL/mg | Beta, per-allele change in DN AUC (CYP2C19; CYP219C*2, White, N 24): 0.198 log ng.h/mL/mg | Beta, per-allele change in DN AUC(0–12) (CYP2C19; CYP219C*2, White, N 24): 0.242 log ng.h/mL/mg | Beta, per-allele change in DN Cmax (CYP2C19; CYP219C*2, White, N 24): 0.167 log ng/mL/mg | Beta, per-allele effect on DN AUC (CYP2C19; [5]): 0.042 log ng.h/mL/mg | Beta, per-allele effect on DN AUC(0–12) (CYP2C19; [5]): 0.069 log ng.h/mL/mg | Beta, per-allele effect on DN Cmax (CYP2C19; [5]): -0.010 log ng/mL/mg | Beta, per-allele change in DN AUC (CYP2C19; CYP219C*3, East Asian, N 42): 0.063 log ng.h/mL/mg | Beta, per-allele change in DN AUC(0–12) (CYP2C19; CYP219C*3, East Asian, N 42): 0.096 log ng.h/mL/mg | Beta, per-allele change in DN Cmax (CYP2C19; CYP219C*3, East Asian, N 42): 0.122 log ng/mL/mg | Beta, per-allele effect on DN AUC (CYP2C19; [6]): 0.063 log ng.h/mL/mg | Beta, per-allele effect on DN AUC(0–12) (CYP2C19; [6]): 0.096 log ng.h/mL/mg | Beta, per-allele effect on DN Cmax (CYP2C19; [6]): 0.122 log ng/mL/mg | Beta, per-allele change in DN AUC (CYP2C19; CYP219C*17, Black, N 21): 0.090 log ng.h/mL/mg | Beta, per-allele change in DN AUC(0–12) (CYP2C19; CYP219C*17, Black, N 21): 0.089 log ng.h/mL/mg | Beta, per-allele change in DN Cmax (CYP2C19; CYP219C*17, Black, N 21): 0.086 log ng/mL/mg | Beta, per-allele change in DN AUC (CYP2C19; CYP219C*17, East Asian, N 42): -0.104 log ng.h/mL/mg | Beta, per-allele change in DN AUC(0–12) (CYP2C19; CYP219C*17, East Asian, N 42): -0.139 log ng.h/mL/mg | Beta, per-allele change in DN Cmax (CYP2C19; CYP219C*17, East Asian, N 42): -0.142 log ng/mL/mg | Beta, per-allele change in DN AUC (CYP2C19; CYP219C*17, White, N 24): -0.116 log ng.h/mL/mg | Beta, per-allele change in DN AUC(0–12) (CYP2C19; CYP219C*17, White, N 24): -0.127 log ng.h/mL/mg | Beta, per-allele change in DN Cmax (CYP2C19; CYP219C*17, White, N 24): 0.041 log ng/mL/mg | Beta, per-allele effect on DN AUC (CYP2C19; [7]): 0.004 log ng.h/mL/mg | Beta, per-allele effect on DN AUC(0–12) (CYP2C19; [7]): -0.014 log ng.h/mL/mg | Beta, per-allele effect on DN Cmax (CYP2C19; [7]): 0.037 log ng/mL/mg | Beta, per-allele change in DN AUC (ABCG2; Black, N 21): 0.018 log ng.h/mL/mg | Beta, per-allele change in DN AUC(0–12) (ABCG2; Black, N 21): -0.020 log ng.h/mL/mg | Beta, per-allele change in DN Cmax (ABCG2; Black, N 21): -0.463 log ng/mL/mg | Beta, per-allele change in DN AUC (ABCG2; East Asian, N 42): 0.042 log ng.h/mL/mg | Beta, per-allele change in DN AUC(0–12) (ABCG2; East Asian, N 42): 0.043 log ng.h/mL/mg | Beta, per-allele change in DN Cmax (ABCG2; East Asian, N 42): 0.104 log ng/mL/mg | Beta, per-allele change in DN AUC (ABCG2; White, N 24): -0.116 log ng.h/mL/mg | Beta, per-allele change in DN AUC(0–12) (ABCG2; White, N 24): -0.093 log ng.h/mL/mg | Beta, per-allele change in DN Cmax (ABCG2; White, N 24): -0.119 log ng/mL/mg | Beta, per-allele effect on DN AUC (ABCG2; [8]): 0.028 log ng.h/mL/mg | Beta, per-allele effect on DN AUC(0–12) (ABCG2; [8]): 0.029 log ng.h/mL/mg | Beta, per-allele effect on DN Cmax (ABCG2; [8]): 0.015 log ng/mL/mg
SMILES: Cn1cnc2c(F)c(Nc3ccc(Br)cc3Cl)c(C(=O)NOCCO)cc21 [selumetinib, Selumetinib]
substrate of enzyme [1]: substrate | substrate of transporter protein [2]: substrate
